Like-named read-outs stand apart in the source and are kept apart here.
Legend:
Assay type in all cases: cell-based, mouse
[1] = test system: α7 integrin (LacZ reporter in α7βgal+/− myoblasts); test: Myoblast α7+/LacZ integrin FDG assay (Burkin assay in myoblasts, 96-well); details: α7+/LacZ myoblasts, 96-well; for fold induction at 0.5 µM / fold induction at 1 µM / fold induction at 5 µM / fold induction at 10 µM / fold induction at 20 µM / fold induction at 40 µM: Mus musculus, Myoblast, 48 h
[2] = test system: α7 integrin (LacZ reporter in α7+/LacZ myotubes); test: Myotube α7 integrin FDG assay (Burkin assay in myotubes, 96-well); details: myotubes; for fold induction at 0.5 µM / fold induction at 1 µM / fold induction at 5 µM / fold induction at 10 µM / fold induction at 20 µM / fold induction at 40 µM: Mus musculus, Myotube
[3] = test system: β-galactosidase in CMV-LacZ C2C12 myotubes; test: CMV-LacZ secondary screen in C2C12 myotubes (β-Gal stabilizing assay); details: for CMV-LACZ in Myotubes, signal relative to DMSO / fold induction at 5 µM / fold induction at 10 µM / fold induction at 20 µM / fold induction at 40 µM: C2C12 CMV-LacZ myotubes, fold relative to DMSO; for fold induction at 5 µM / fold induction at 10 µM / fold induction at 20 µM / fold induction at 40 µM: Mus musculus; for fold induction at 5 µM: C2C12, read-out: CMV-LACZ in Myotubes, signal relative to DMSO, 5 uM; for fold induction at 10 µM: C2C12, read-out: CMV-LACZ in Myotubes, signal relative to DMSO, 10 uM; for fold induction at 20 µM: C2C12, read-out: CMV-LACZ in Myotubes, signal relative to DMSO, 20 uM; for fold induction at 40 µM: C2C12, read-out: CMV-LACZ in Myotubes, signal relative to DMSO, 40 uM; for CMV-LACZ in Myotubes (β-galactosidase activity relative to DMSO): CMV-LacZ C2C12 myotubes, 96-well format
Outline: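 β-gal stabilization was measured in C2C12 myoblasts or myotubes stably transfected with a CMV-driven LacZ construct, using the FDG β-gal assay. Compounds were tested in dose-response at 0.5, 1, 5, 10, 20 and 40 μM, with two replicates per point.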

[4] = 0.5 uM, read-out: Burkin Assay in Myoblasts, signal relative to DMSO
[5] = 1 uM, read-out: Burkin Assay in Myoblasts, signal relative to DMSO
[6] = 5 uM, read-out: Burkin Assay in Myoblasts, signal relative to DMSO
[7] = 10 uM, read-out: Burkin Assay in Myoblasts, signal relative to DMSO
[8] = 20 uM, read-out: Burkin Assay in Myoblasts, signal relative to DMSO
[9] = 40 uM, read-out: Burkin Assay in Myoblasts, signal relative to DMSO
[10] = 0.5 uM, read-out: Burkin Assay in Myotubes, α7 integrin LacZ reporter signal relative to DMSO
[11] = 1 uM, read-out: Burkin Assay in Myotubes, α7 integrin LacZ reporter signal relative to DMSO
[12] = 5 uM, read-out: Burkin Assay in Myotubes, α7 integrin LacZ reporter signal relative to DMSO
[13] = 10 uM, read-out: Burkin Assay in Myotubes, α7 integrin LacZ reporter signal relative to DMSO
[14] = 20 uM, read-out: Burkin Assay in Myotubes, α7 integrin LacZ reporter signal relative to DMSO
[15] = 40 uM, read-out: Burkin Assay in Myotubes, α7 integrin LacZ reporter signal relative to DMSO

Row | Structure (SMILES) | Burkin Assay in Myoblasts, signal relative to DMSO ([1]; 0.5 uM) | Burkin Assay in Myoblasts, signal relative to DMSO ([1]; 1 uM) | Burkin Assay in Myoblasts, signal relative to DMSO ([1]; 5 uM) | Burkin Assay in Myoblasts, signal relative to DMSO ([1]; 10 uM) | Burkin Assay in Myoblasts, signal relative to DMSO ([1]; 20 uM) | Burkin Assay in Myoblasts, signal relative to DMSO ([1]; 40 uM) | Burkin Assay in Myotubes, α7 integrin LacZ reporter signal relative to DMSO ([2]; 0.5 uM) | Burkin Assay in Myotubes, α7 integrin LacZ reporter signal relative to DMSO ([2]; 1 uM) | Burkin Assay in Myotubes, α7 integrin LacZ reporter signal relative to DMSO ([2]; 5 uM) | Burkin Assay in Myotubes, α7 integrin LacZ reporter signal relative to DMSO ([2]; 10 uM) | Burkin Assay in Myotubes, α7 integrin LacZ reporter signal relative to DMSO ([2]; 20 uM) | Burkin Assay in Myotubes, α7 integrin LacZ reporter signal relative to DMSO ([2]; 40 uM) | CMV-LACZ in Myotubes, signal relative to DMSO ([3]; 5 uM) | CMV-LACZ in Myotubes, signal relative to DMSO ([3]; 10 uM) | CMV-LACZ in Myotubes, signal relative to DMSO ([3]; 20 uM) | CMV-LACZ in Myotubes, signal relative to DMSO ([3]; 40 uM) | fold induction at 5 µM [3] | fold induction at 10 µM [3] | fold induction at 20 µM [3] | fold induction at 40 µM [3] | other results
1 | Cc1cccc(NC(=O)c2cc3ccccc3oc2=O)c1 [MLS001209245-01] | 1.039 | 1.132 | 1.021 | 1.071 | 1.1 | 1.039 | 1.113 | 1.245 | 0.9667 | 0.9979 | 0.6876 | 0.5729 | 0.8568 | 0.9675 | 0.9662 | 0.9952 |  |  |  |  | 
2 | CCCNC(=S)N1CCC(NC(=O)c2ccc(OC)cc2)CC1 [MLS001211651-01] | 1.061 | 1.124 | 1.011 | 0.972 | 0.9909 | 1.026 | 0.8543 | 0.913 | 1.116 | 1.025 | 1.076 | 1.027 | 0.8714 | 0.8433 | 0.8465 | 0.977 |  |  |  |  | 
3 | Cl.O=C(CN1CCOCC1)NCc1cc([N+](=O)[O-])ccc1O [MLS001211976-01] | 0.9583 | 0.946 | 0.9018 | 0.9154 | 0.9417 | 0.8952 | 1.032 | 1.2336 | 1.241 | 1.199 | 1.099 | 1.1302 | 0.8547 | 0.9979 | 0.9697 | 1.014 |  |  |  |  | 
4 | COc1ccc(Nc2ncnc3ccc(C)cc23)cc1 [MLS001212498-01] |  |  |  |  |  |  |  |  |  |  |  |  |  |  |  |  | 0.85 | 0.784 | 0.749 | 0.848 | fold induction at 0.5 µM [1, 4]: 1.05; fold induction at 1 µM [1, 5]: 1.2; fold induction at 5 µM [1, 6]: 1.18; fold induction at 10 µM [1, 7]: 1.31; fold induction at 20 µM [1, 8]: 1.29; fold induction at 40 µM [1, 9]: 1.4; fold induction at 0.5 µM [2, 10]: 0.941; fold induction at 1 µM [2, 11]: 1.12; fold induction at 5 µM [2, 12]: 1.11; fold induction at 10 µM [2, 13]: 1.34; fold induction at 20 µM [2, 14]: 1.16; fold induction at 40 µM [2, 15]: 1.16
5 | COc1ccc(-n2c(C)c(C(C)=O)c3cc(OC(C)=O)ccc32)cc1 [MLS001212998-01] |  |  |  |  |  |  |  |  |  |  |  |  |  |  |  |  | 0.78 | 0.908 | 0.972 | 0.783 | fold induction at 0.5 µM [1, 4]: 1.19; fold induction at 1 µM [1, 5]: 1.2; fold induction at 5 µM [1, 6]: 1.45; fold induction at 10 µM [1, 7]: 1.54; fold induction at 20 µM [1, 8]: 1.36; fold induction at 40 µM [1, 9]: 1.3; fold induction at 0.5 µM [2, 10]: 1.14; fold induction at 1 µM [2, 11]: 1.1; fold induction at 5 µM [2, 12]: 1.46; fold induction at 10 µM [2, 13]: 1.45; fold induction at 20 µM [2, 14]: 1.45; fold induction at 40 µM [2, 15]: 1.05
6 | NS(=O)(=O)c1ccc(NC(=O)c2cc(-c3ccccc3O)n[nH]2)cc1 [MLS001214443-01] |  |  |  |  |  |  |  |  |  |  |  |  |  |  |  |  |  |  |  |  | Burkin Assay in Myoblasts, value relative to DMSO ([1]; 0.5 uM): 0.9203; Burkin Assay in Myoblasts, value relative to DMSO ([1]; 1 uM): 0.8074; Burkin Assay in Myoblasts, value relative to DMSO ([1]; 5 uM): 0.7787; Burkin Assay in Myoblasts, value relative to DMSO ([1]; 10 uM): 0.8173; Burkin Assay in Myoblasts, value relative to DMSO ([1]; 20 uM): 0.9132; Burkin Assay in Myoblasts, value relative to DMSO ([1]; 40 uM): 0.9313; Burkin Assay in Myotubes (signal relative to DMSO) ([2]; 0.5 uM): 0.8262; Burkin Assay in Myotubes (signal relative to DMSO) ([2]; 1 uM): 0.9018; Burkin Assay in Myotubes (signal relative to DMSO) ([2]; 5 uM): 0.9442; Burkin Assay in Myotubes (signal relative to DMSO) ([2]; 10 uM): 1.193; Burkin Assay in Myotubes (signal relative to DMSO) ([2]; 20 uM): 1.154; Burkin Assay in Myotubes (signal relative to DMSO) ([2]; 40 uM): 1.083; CMV-LACZ in Myotubes (β-galactosidase activity relative to DMSO) ([3]; 5 uM): 0.9737; CMV-LACZ in Myotubes (β-galactosidase activity relative to DMSO) ([3]; 10 uM): 1.072; CMV-LACZ in Myotubes (β-galactosidase activity relative to DMSO) ([3]; 20 uM): 0.9507; CMV-LACZ in Myotubes (β-galactosidase activity relative to DMSO) ([3]; 40 uM): 0.9022
7 | CC(=O)Nc1c(-c2ccc(Cl)cc2)c(=O)c2ccccc2n1C [MLS001214461-01] |  |  |  |  |  |  |  |  |  |  |  |  | 0.8137 | 0.9363 | 0.9167 | 0.9566 |  |  |  |  | Burkin Assay in Myoblasts, value relative to DMSO ([1]; 0.5 uM): 1.064; Burkin Assay in Myoblasts, value relative to DMSO ([1]; 1 uM): 0.9241; Burkin Assay in Myoblasts, value relative to DMSO ([1]; 5 uM): 0.8964; Burkin Assay in Myoblasts, value relative to DMSO ([1]; 10 uM): 0.8123; Burkin Assay in Myoblasts, value relative to DMSO ([1]; 20 uM): 0.8472; Burkin Assay in Myoblasts, value relative to DMSO ([1]; 40 uM): 0.767; Burkin Assay in Myotubes (signal relative to DMSO) ([2]; 0.5 uM): 1.207; Burkin Assay in Myotubes (signal relative to DMSO) ([2]; 1 uM): 0.9586; Burkin Assay in Myotubes (signal relative to DMSO) ([2]; 5 uM): 1.072; Burkin Assay in Myotubes (signal relative to DMSO) ([2]; 10 uM): 0.9457; Burkin Assay in Myotubes (signal relative to DMSO) ([2]; 20 uM): 1.087; Burkin Assay in Myotubes (signal relative to DMSO) ([2]; 40 uM): 0.8844
8 | O=C(NCCc1ccc(F)cc1)N[C@@H](Cc1ccccc1)C(=O)O [MLS001214704-01] |  |  |  |  |  |  |  |  |  |  |  |  |  |  |  |  | 0.885 | 1.28 | 0.933 | 0.914 | fold induction at 0.5 µM ([1]; 0.5 uM, read-out: Burkin Assay in Myoblasts, value relative to DMSO): 1.11; fold induction at 1 µM ([1]; 1 uM, read-out: Burkin Assay in Myoblasts, value relative to DMSO): 1.3; fold induction at 5 µM ([1]; 5 uM, read-out: Burkin Assay in Myoblasts, value relative to DMSO): 1.08; fold induction at 10 µM ([1]; 10 uM, read-out: Burkin Assay in Myoblasts, value relative to DMSO): 1.19; fold induction at 20 µM ([1]; 20 uM, read-out: Burkin Assay in Myoblasts, value relative to DMSO): 0.985; fold induction at 40 µM ([1]; 40 uM, read-out: Burkin Assay in Myoblasts, value relative to DMSO): 1.05; fold induction at 0.5 µM ([2]; 0.5 uM, read-out: Burkin Assay in Myotubes (signal relative to DMSO)): 0.976; fold induction at 1 µM ([2]; 1 uM, read-out: Burkin Assay in Myotubes (signal relative to DMSO)): 1.11; fold induction at 5 µM ([2]; 5 uM, read-out: Burkin Assay in Myotubes (signal relative to DMSO)): 1.07; fold induction at 10 µM ([2]; 10 uM, read-out: Burkin Assay in Myotubes (signal relative to DMSO)): 1.11; fold induction at 20 µM ([2]; 20 uM, read-out: Burkin Assay in Myotubes (signal relative to DMSO)): 1.06; fold induction at 40 µM ([2]; 40 uM, read-out: Burkin Assay in Myotubes (signal relative to DMSO)): 1.16

Source: patent US9980943B2, “Methods of treating muscular dystrophy” (BOARD OF REGENTS OF THE NEVADA SYSTEM OF HIGHER EDUCATION, …, priority 2013, dated 2018)
